What was measured:
[1] = test system: one experienced panelist; experiment: Taste evaluation of Reb X against Reb A and Reb D, multi-sip and swallow taste method; format: in vivo, human
Experimental: The taste properties of a sample of Reb X were studied against Rebaudioside A (Reb A) and Rebaudioside D (Rb D) samples. Rb A was obtained from Cargill (lot #1040) and Reb-D was obtained from PureCircle (lot #11/3/08).
The samples were prepared at 500 ppm for sweetness evaluation by adding moisture compensated mass into a 100 mL sample of carbon-treated water and citric buffer solutions.
Citric buffer was prepared by mixing 1.171 g/L citric acid, 0.275 g/L sodium citrate and 0.185 g/L sodium benzoate with carbon-treated water, with a final pH of 3.22. The mixtures were moderately stirred at room temperature. The Reb X sample was then evaluated against the two control Reb A and Reb D samples in water and citric buffer at room temperature (RT) and at 4° C. in an ice bath by one experienced panelist for any tasting quality determinations using the controlled, multi-sip and swallow taste method shown below:
1. Take first sip (˜1.8 mL) of control and swallow. Wait for 15-25 sec, then take second sip of control and wait for 15-25 sec.
2. Take first sip of the experimental sample, wait for 15-25 sec, then take second sip. Compare to second sip of control.
3. Repeat steps #1 and #2 for the third and fourth sips of the control and experimental samples to confirm the initial finding.
The taste evaluation results of the Reb X samples against the control Reb A and Reb D samples at 500 ppm in citric buffer (CB) at 4° C. and RT are described in Table 4.

[2] = test system: one experienced taster; experiment: Isosweetness determination of Reb X in citric buffer against sucrose controls; format: in vivo, human; details: for Estimated % Sweetness Equivalence in Citric Buffer at 4° C.: citric buffer pH 3.1, 4° C.; for Estimated % Sweetness Equivalence in Citric Buffer at RT: citric buffer pH 3.1, RT
Experimental: (§1) The isosweetness levels of Reb X in a citric buffer system at room temperature and 4° C. were evaluated. A 600 ppm stock solution of Reb X was prepared by adding a mass of 0.15 g into a 250 mL sample of citric buffer (CB) solution. The mixture was moderately stirred at warmer temperature (up to ca. 52° C.) on a heated stirrer for about 15-20 minutes and then cooled. The citric buffer was prepared by adding 1.6 g citric acid, 0.6 g potassium citrate and 0.253 g sodium benzoate in 1 L of carbon-treated water. The pH of the mixture was 3.1. Seven diluted Reb X solutions at 12.5, 25, 50, 100, 200, 300, 400 and 500 ppm were prepared by adding a 2.08, 4.17, 8.33, 16.67, 25.00, 33.33 and 41.67 mL Reb X stock solution, respectively, into each 50 mL solution of CB. The controls of 0.75%, 2%, 4%, 6%, 8%, 10% and 15% sucrose equivalence (SE) were also prepared by adding sugar (w/v) into the CB. The mixtures were moderately stirred and then ready for the isosweetness determination test. The Reb X samples were then evaluated against the control sugar samples in citric buffer at room temperature (RT) and 4° C. (in an ice bath) by one experienced taster for an isosweetness determination using the controlled, multi-sip and swallow taste method.

[3] = Solubility of 600 ppm Reb X stock solution in citric buffer; format: physicochemical; details: 0.06% (w/v) in citric buffer at up to 52° C. for ca. 15-20 minutes
Experimental: as §1, with “Seven diluted Reb X solutions at 12.5, 25, 50, 100, 200, 300, 400 and 500 ppm were prepared by adding a 2.08, 4.17, 8.33, 16.67, 25.00, 33.33 and 41.67 mL Reb X stock solution, respectively, into each 50 mL solution of CB.” left out
Despite the stronger mouthfeel or texture effect (syrupy, thicker) at ca. 15% sucrose, it was difficult to determine the isosweetness levels for at least 400 ppm of Reb X due to its thinner mouthfeel but broader and more impact sweetness temporal profile as well as its significant sweet lingering.

[4] = test system: semi-trained panel members; experiment: Sensory comparison of Reb X and Reb A, iso-sweet samples at 8% sucrose equivalent; format: in vivo, human
Experimental: To compare the sensory attributes between Reb X and Reb A, iso-sweet samples having 8% sucrose equivalent sweetness were made with filtered water as shown in Table 8. An 8% sugar solution in water at room temperature was used as a control. An 8% sugar solution in the acidified solution was used as the control. The samples prepared with filtered water were evaluated by 34 semi-trained panel members at room temperature. The samples prepared with acidified water were evaluated by 23 semi-trained panel members at room temperature. Samples were given to the panel members sequentially and coded with triple digit numbers. The order of sample presentation was randomized to avoid order of presentation bias. Water and unsalted crackers were provided in order to cleanse the palate. The panel members were asked to rate different attributes including sweetness onset, total sweetness, rounded sweetness, bitterness, acidity, leafy note, licorice, astringency, mouthfeel, mouth coating, sweet lingering, and bitter lingering. Samples were rated on a scale of zero (0) to ten (10), with zero indicating immediate onset, no intensity, watery/low viscosity, or very sharp peak, and ten indicating very delayed onset, high intensity, thick/high viscosity, or very round peak. One-way single factor ANOVA was used to analyze sensory results, where α=0.05.

[5] = acidified water (250 ppm citric acid, pH 3.2), 23 panel members, FIG. 12

Compound: C=C1C[C@@]23CCC4[C@](C)(C(=O)OC5OC(CO)C(O)C(OC6OC(CO)C(O)C(O)C6O)C5OC5OC(CO)C(O)C(O)C5O)CCC[C@@]4(C)[C@@H]2CCC1(OC1OC(CO)C(O)C(OC2OC(CO)C(O)C(O)C2O)C1OC1OC(CO)C(O)C(O)C1O)C3 (stereo partly drawn) [Reb X, (13-[2-O-β-D-glucopyranosyl-3-O-β-D-glucopyranosyl-β-D-glucopyranosyl)oxy] ent kaur-16-en-19-oic acid-[2-O-β-D-glucopyranosyl-3-O-β-D-glycopyranosyl) ester]
- Taste quality at room temperature versus 4° C. ([1]; 500 ppm in citrate buffer): similar
- Taste quality compared with Reb A and Reb D ([1]; 500 ppm in citrate buffer): much better than Reb A or Reb D
- Sweet temporal profile and sweetness linger ([1]; 500 ppm in citrate buffer, compared with Reb A): fatty-like or broader sweet temporal profile and less sweetness linger than that of Reb A
- Taste Properties ([1]; 500 ppm in citric buffer (pH 3.22), room temperature): Clean sweet taste. Broad and full sweetness profile. Moderate
- Astringency, sweetness intense (depth) and bitterness notes ([1]; 500 ppm, citrate buffer system, compared with Reb A): did not have the astringency or sweetness intense (depth) and bitterness notes compared to that of the Reb A
- Estimated % Sweetness Equivalence in Citric Buffer at 4° C. ([2]; Reb X 12.5 ppm): 0.75%
- Estimated % Sweetness Equivalence in Citric Buffer at RT ([2]; Reb X 12.5 ppm): 0.5%
- Estimated % Sweetness Equivalence in Citric Buffer at 4° C. ([2]; Reb X 25 ppm): 1.5%
- Estimated % Sweetness Equivalence in Citric Buffer at RT ([2]; Reb X 25 ppm): 1.0-1.5%
- Estimated % Sweetness Equivalence in Citric Buffer at 4° C. ([2]; Reb X 50 ppm): 3.0-3.5%
- Estimated % Sweetness Equivalence in Citric Buffer at RT ([2]; Reb X 50 ppm): 3.25-3.75%
- Estimated % Sweetness Equivalence in Citric Buffer at 4° C. ([2]; Reb X 100 ppm): 5.5%
- Estimated % Sweetness Equivalence in Citric Buffer at RT ([2]; Reb X 100 ppm): 5.0%
- Estimated % Sweetness Equivalence in Citric Buffer at 4° C. ([2]; Reb X 200 ppm): 8.0%
- Estimated % Sweetness Equivalence in Citric Buffer at RT ([2]; Reb X 200 ppm): 8.0%
- Estimated % Sweetness Equivalence in Citric Buffer at 4° C. ([2]; Reb X 300 ppm): 11.0-12.0%
- Estimated % Sweetness Equivalence in Citric Buffer at RT ([2]; Reb X 300 ppm): 12.0%
- Estimated % Sweetness Equivalence in Citric Buffer at 4° C. ([2]; Reb X 400 ppm): 14.0-14.5%
- Estimated % Sweetness Equivalence in Citric Buffer at RT ([2]; Reb X 400 ppm): 14.0-14.5%
- Estimated % Sweetness Equivalence in Citric Buffer at 4° C. ([2]; Reb X 500 ppm): 15.5-16.0%
- Estimated % Sweetness Equivalence in Citric Buffer at RT ([2]; Reb X 500 ppm): 15.5-16.0%
- Estimated % Sweetness Equivalence in Citric Buffer at 4° C. ([2]; Reb X 600 ppm): 16.5-17.0%
- Estimated % Sweetness Equivalence in Citric Buffer at RT ([2]; Reb X 600 ppm): 16.5-17.0%
- Sweetness intensity difference between RT and 4° C. ([2]; Reb X concentration range, direct comparison with control sucrose at similar temperatures): no significant sweetness intensity difference
- Sweetness tasting quality ([2]; all concentrations (12.5-600 ppm) in citric buffer): pleasant sweetness tasting quality with a slight delay of sweetness onset and no bitterness
- Off-flavors ([2]; any Reb X concentrations in CB at 4° C., except at least ca. 300 ppm): No off-flavors
- Sweetness lingering ([2]; at least ca. 300 ppm Reb X in CB at 4° C.): longer sweetness lingering
- Solubility and appearance [3]: very soluble and clear (colorless)
- Perceived sweetness compared to Reb A [4, 5]: higher sweetness of Reb X over Reb A is significant
- Sweetness onset, non-sweet taste and bitterness lingering compared to Reb A [4, 5]: faster sweetness onset, reduced non-sweet taste (bitterness, sour, astringency) and bitterness lingering
- Bitterness, astringency and bitter lingering compared to Reb A ([4]; filtered water, room temperature, 34 panel members, FIG. 11): reduced perception of bitterness, astringency and bitter lingering compared to Reb A

— patent US12479877B2, “Methods for purifying steviol glycosides and uses of the same” (PureCircle Sdn. Bhd., priority 2010, dated 2025)
